From the NIST ThermoML archive (doi:10.1016/j.jct.2017.08.017)
Where “and” joins values, the source holds several entries; their conditions need not be identical. Identical values can stand only once. Numbers after ± are expanded uncertainties.

Experiments:
[1] = molar enthalpy of vaporization or sublimation; details: 298.15 K; Crystal; Static calorimetry
[2] = Crystal, Calculated from knudsen effusion weight loss

c1ccc(-c2nc3ccccc3o2)cc1 [2-phenylbenzoxazole]
molar enthalpy [1]: 21.7 ± 0.478 kcal/mol

Oc1ccccc1-c1nc2ccccc2o1 [2-(2-hydroxyphenyl)benzoxazole]
vapor or sublimation pressure ([2]; 331.16 K): 0.000127 ± 0.00012 kPa and 0.00012 ± 0.00012 kPa and 0.000119 ± 0.00012 kPa | vapor or sublimation pressure ([2]; 333.19 K): 0.000156 ± 0.00012 kPa and 0.000152 ± 0.00012 kPa and 0.00015 ± 0.00012 kPa | vapor or sublimation pressure ([2]; 335.13 K): 0.000191 ± 0.00012 kPa and 0.000188 ± 0.00012 kPa | vapor or sublimation pressure ([2]; 337.16 K): 0.000233 ± 0.00012 kPa and 0.00023 ± 0.00012 kPa and 0.000248 ± 0.00012 kPa | vapor or sublimation pressure ([2]; 339.18 K): 0.000301 ± 0.00012 kPa and 0.000288 ± 0.00012 kPa and 0.000294 ± 0.00012 kPa | vapor or sublimation pressure ([2]; 341.12 K): 0.000365 ± 0.00012 kPa and 0.000362 ± 0.00012 kPa and 0.000366 ± 0.00012 kPa | vapor or sublimation pressure ([2]; 343.16 K): 0.000446 ± 0.00012 kPa and 0.000441 ± 0.00012 kPa and 0.000477 ± 0.00012 kPa | vapor or sublimation pressure ([2]; 345.17 K): 0.000571 ± 0.00012 kPa and 0.000545 ± 0.00012 kPa and 0.000558 ± 0.00012 kPa | vapor or sublimation pressure ([2]; 347.11 K): 0.000688 ± 0.00012 kPa and 0.00068 ± 0.00012 kPa | vapor or sublimation pressure ([2]; 349.16 K): 0.000829 ± 0.00012 kPa and 0.000822 ± 0.00012 kPa and 0.000879 ± 0.00012 kPa | vapor or sublimation pressure ([2]; 351.16 K): 0.001027 ± 0.00014 kPa and 0.001049 ± 0.00014 kPa and 0.001006 ± 0.00014 kPa | vapor or sublimation pressure ([2]; 353.12 K): 0.001264 ± 0.00015 kPa and 0.001273 ± 0.00015 kPa and 0.00126 ± 0.00015 kPa | molar enthalpy [1]: 24 ± 0.43 kcal/mol

c1ccc(-c2nc3ccccc3s2)cc1 [2-phenylbenzothiazole]
molar enthalpy [1]: 23.7 ± 0.406 kcal/mol

Oc1ccccc1-c1nc2ccccc2s1 [2-(2-hydroxyphenyl)-1,3-benzothiazole]
molar enthalpy [1]: 25.1 ± 0.526 kcal/mol
